# Measured values: US20250332300A1 (priority 2024, published 2025)
# Like-named read-outs stand apart in the source and are kept apart here. Positions of bridges follow the written chain, without caps; N, C: chain ends. Non-standard residues stand in square brackets, D forms with d. *: point of attachment. X4 = 4‑(carboxymethyl)piperazine‑1‑carbonyl, O=C(O)CN1CCN(C(=O)*)CC1; DOTA = O=C(O)CN1CCN(CC(=O)O)CCN(CC(=O)*)CCN(CC(=O)O)CC1; Trp(5-OH) = N[C@@H](Cc1c[nH]c2ccc(O)cc12)C(=O)O; NMePhe(4-F) = CN[C@@H](Cc1ccc(F)cc1)C(=O)O; NMehPhe = CN[C@@H](CCc1ccccc1)C(=O)O; Aad = N[C@@H](CCCC(=O)O)C(=O)O; aThr = C[C@H](O)[C@H](N)C(=O)O; NMeK = CN[C@@H](CCCCN)C(=O)O; NMeDap = CN[C@@H](CN)C(=O)O; NMeC = CN[C@@H](CS)C(=O)O; NMeS = CN[C@@H](CO)C(=O)O; CproG = not defined here; Dap = NC[C@H](N)C(=O)O
# Assays:
# [1] = format: physicochemical
# Procedure: Radio-HPLC Analytical Method: Eluent A: Water+0.1% TFA; Eluent B: ACN+0.1% TFA; Column temperature: 25° C.; Flow: 1.0 mL/min; Column: […] Gradient: hold 10% B for 1 min, from 10 to 80% B in 8 min, hold 80% B for 2 min, from 80 to 15% B in 1 min. The initial radiochemical purity of [^68Ga]Ga-labeled compounds was analyzed by radio-HPLC and the stability in solution at 24° C. was evaluated 4 h after the end of synthesis by radio-HPLC.
# [2] = tested on: subcutaneous JimT1 tumors; parameters: species or system Nu (NCr)-Foxnlnu-homozygous mice; conditions: mouse, in vivo, iv
# Procedure: Biodistribution studies were performed at Minerva Imaging. All animal experimentation was carried out under a license approved by the National Animal Experiments Inspectorate under the Ministry of Environment and Food of Denmark, and further approved by the Novartis Animal Welfare Office. Biodistribution studies were performed in Nu (NCr)-Foxnlnu-homozygous mice bearing subcutaneous JimT1 tumors. Mice were subcutaneously implanted with 2×10^6 JimT1 cells into right flank. The biodistribution studies were typically performed when tumors were approximately 200 mm^3 in volume. Compounds according to Examples H1 and H2 were prepared as described in the radiochemistry part (Section 9). Animals were single dose administered with an activity concentration of 4 MBq/nmol per animal. The biodistribution of the compounds was assessed using conventional ex vivo biodistribution at different time points (1, 4, 24 and 72 hrs) after intravenous injection of Lu-177 labelled compounds. Mice were euthanized and organs were collected, weighed, and placed inside counting vials. Organ uptake was assessed by gamma counting using an automated gamma counter for 60 seconds immediately after tissue collection. Tissue counts and injected doses for individual animals were decay-corrected to the time of injection. […] Results expressed as a percentage of injected dose per gram of the tissue (% ID/g).
# [3] = biological target: T1, human HER2 (23-652) (Homo sapiens, UniProt P04626); assay: Surface plasmon resonance (SPR) for assessment of peptide affinity, human HER2; format: binding; conditions: SPR, human HER2 extracellular domain, 25° C., 1:1 binding model; read-out: huHER2-SPR-ONC KD
# Procedure: Each protein was immobilized either onto a SA sensorchip (Cytiva, BR-1005-31) or CM5 sensorchip (Cytiva, BR-1005-30) to a density of 800-2000 RU. […] For the assay setup the same conditions (flow rate, running buffer, peptide dilution) as described above were used. In a first step the Anti Fc IgG Ab (from Human Antibody Capture Kit, Ref. 29234600, Cytiva) was diluted into acetate pH 5.0 at 25 ug/mL and immobilized at a flow rate of 10 uL/min over 360 s to reach a density around 6000 RU. […] The peptides were tested with an association time of 280 s followed by a dissociation time of 3000 s at a flow rate of 30 uL/min. The regeneration was done using 3 M magnesium chloride regeneration solution as obtained with a contact time of 30 s at a flow rate of 10 uL/min. Curve fitting was performed using the BiacoreTM 8K evaluation software.
# [4] = biological target: T2, mouse HER2 (23-653) (Mus musculus, UniProt P70424); assay: Surface plasmon resonance (SPR) for assessment of peptide affinity, mouse HER2; format: binding; conditions: SPR, mouse HER2 extracellular domain, 25° C., 1:1 binding model; read-out: moHER2-SPR-ONC KD
# Text: (§1) Each protein was immobilized either onto a SA sensorchip (Cytiva, BR-1005-31) or CM5 sensorchip (Cytiva, BR-1005-30) to a density of 800-2000 RU.
# [5] = biological target: T1, human HER2 (23-652); assay: TR-FRET competition assay for peptide potency, human HER2; format: binding; parameters: towards human HER2 (23-652) and mouse HER2 (23-653); made in house; host or cells: mammalian cells; conditions: read-out: huHER2 TR-FRET IC50
# [6] = biological target: T2, mouse HER2 (23-653); assay: TR-FRET competition assay for peptide potency, mouse HER2; format: binding; parameters: mouse HER2 (23-653) using a Cy5 labeled peptide as a probe; made in house; host or cells: mammalian cells; conditions: TR-FRET competition with Cy5 labeled peptide probe, 0.1 nM mouse HER2, 24 h incubation; read-out: moHER2 TR-FRET IC50
# [7] = biological target: human Herstatin (a soluble truncated HER2 protein) (Homo sapiens, UniProt P04626); assay: SPR selectivity over close protein homologs, Herstatin; format: binding; conditions: protein homolog immobilized on a CM5 chip
# [8] = biological target: human EGFR (Homo sapiens, UniProt P00533); assay: SPR selectivity over close protein homologs, EGFR; format: binding; conditions: protein homolog immobilized on a CM5 chip
# [9] = biological target: human HER3 (Homo sapiens, UniProt P21860); assay: SPR selectivity over close protein homologs, HER3; format: binding; conditions: protein homolog immobilized on a CM5 chip
# [10] = biological target: human HER4 (Homo sapiens, UniProt Q15303); assay: SPR selectivity over close protein homologs, HER4; format: binding; conditions: protein homolog immobilized on a CM5 chip
# [11] = biological target: T1, human HER2 (23-652); assay: Surface plasmon resonance (SPR) for assessment of peptide affinity, human HER2; format: binding; parameters: towards human HER2 (23-652) and mouse HER2 (23-653); made in house; conditions: SPR, human HER2 extracellular domain, 25° C., 1:1 binding model; read-out: huHER2-SPR-ONC KD
# Method in brief: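 Binding kinetics fitted from sensorgrams with 280 s peptide association then 3000 s dissociation (30 uL/min), using HER2 (23-652) either directly immobilized (SA/CM5) or anti-Fc-captured; 3 M magnesium chloride used for regeneration.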
# [12] = biological target: T2, mouse HER2 (23-653); assay: Surface plasmon resonance (SPR) for assessment of peptide affinity, mouse HER2; format: binding; parameters: mouse HER2 (23-653) using a Cy5 labeled peptide as a probe; made in house; conditions: SPR, mouse HER2 extracellular domain, 25° C., 1:1 binding model; read-out: moHER2-SPR-ONC KD
# Text: as §1
# [13] = biological target: mouse HER2 (23-653), biotinylated, His tag, Avi tag (mouse) (UniProt P70424); assay: SPR, HER2 on chip, 25 C
# [14] = biological target: human HER2 (23-652), biotinylated, His tag, Avi tag (human) (UniProt P04626); assay: TR-FRET competition vs Cy5 peptide probe; TR-FRET competition, IC50
# [15] = biological target: T3, human HER2 (23-652), biotinylated, His tag, Avi tag (human, UniProt P04626 23-652, biotin (Avi tag)); assay: SPR, HER2 on chip, 25 C
# T3 construct: range 23-652; TR-FRET used the in-house 23-652 protein; also called huHER2; human epidermal growth factor receptor 2; not shown: His tag and Avi tag, said to be at the N-terminus for the TR-FRET protein
# [16] = biological target: T4, mouse HER2 (23-653), biotinylated, His tag, Avi tag (mouse, UniProt P70424 23-653, biotin (Avi tag)); assay: SPR, HER2 on chip, 25 C
# T4 construct: range 23-653; in-house protein expressed in mammalian cells; also called moHER2; not shown: His tag and Avi tag, said to be at the N-terminus for the TR-FRET protein
# [17] = biological target: T3, human HER2 (23-652), biotinylated, His …; assay: TR-FRET competition vs Cy5 peptide probe
# [18] = biological target: T4, mouse HER2 (23-653), biotinylated, His …; assay: TR-FRET competition vs Cy5 peptide probe
# T2 sequence (P70424 23-653): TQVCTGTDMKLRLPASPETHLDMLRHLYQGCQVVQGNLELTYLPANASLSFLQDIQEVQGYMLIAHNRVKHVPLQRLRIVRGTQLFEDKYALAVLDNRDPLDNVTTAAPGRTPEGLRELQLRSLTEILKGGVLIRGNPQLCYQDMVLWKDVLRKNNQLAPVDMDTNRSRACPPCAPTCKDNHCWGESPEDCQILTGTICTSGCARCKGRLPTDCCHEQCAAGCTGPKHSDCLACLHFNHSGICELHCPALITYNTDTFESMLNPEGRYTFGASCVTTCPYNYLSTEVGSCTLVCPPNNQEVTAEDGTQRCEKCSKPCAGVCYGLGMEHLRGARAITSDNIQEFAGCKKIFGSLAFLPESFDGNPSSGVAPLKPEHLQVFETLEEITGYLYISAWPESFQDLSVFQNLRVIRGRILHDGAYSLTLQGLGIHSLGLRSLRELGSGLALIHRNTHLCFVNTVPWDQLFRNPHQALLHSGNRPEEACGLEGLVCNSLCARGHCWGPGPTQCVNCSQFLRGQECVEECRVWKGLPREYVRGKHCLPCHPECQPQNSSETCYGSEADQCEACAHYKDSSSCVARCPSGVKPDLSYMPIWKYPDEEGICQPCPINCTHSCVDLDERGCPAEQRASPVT
# T4 sequence (P70424 23-653 limits assumed): as the sequence (P70424 23-653) above
# Chain of human HER3 (P21860 20-1342): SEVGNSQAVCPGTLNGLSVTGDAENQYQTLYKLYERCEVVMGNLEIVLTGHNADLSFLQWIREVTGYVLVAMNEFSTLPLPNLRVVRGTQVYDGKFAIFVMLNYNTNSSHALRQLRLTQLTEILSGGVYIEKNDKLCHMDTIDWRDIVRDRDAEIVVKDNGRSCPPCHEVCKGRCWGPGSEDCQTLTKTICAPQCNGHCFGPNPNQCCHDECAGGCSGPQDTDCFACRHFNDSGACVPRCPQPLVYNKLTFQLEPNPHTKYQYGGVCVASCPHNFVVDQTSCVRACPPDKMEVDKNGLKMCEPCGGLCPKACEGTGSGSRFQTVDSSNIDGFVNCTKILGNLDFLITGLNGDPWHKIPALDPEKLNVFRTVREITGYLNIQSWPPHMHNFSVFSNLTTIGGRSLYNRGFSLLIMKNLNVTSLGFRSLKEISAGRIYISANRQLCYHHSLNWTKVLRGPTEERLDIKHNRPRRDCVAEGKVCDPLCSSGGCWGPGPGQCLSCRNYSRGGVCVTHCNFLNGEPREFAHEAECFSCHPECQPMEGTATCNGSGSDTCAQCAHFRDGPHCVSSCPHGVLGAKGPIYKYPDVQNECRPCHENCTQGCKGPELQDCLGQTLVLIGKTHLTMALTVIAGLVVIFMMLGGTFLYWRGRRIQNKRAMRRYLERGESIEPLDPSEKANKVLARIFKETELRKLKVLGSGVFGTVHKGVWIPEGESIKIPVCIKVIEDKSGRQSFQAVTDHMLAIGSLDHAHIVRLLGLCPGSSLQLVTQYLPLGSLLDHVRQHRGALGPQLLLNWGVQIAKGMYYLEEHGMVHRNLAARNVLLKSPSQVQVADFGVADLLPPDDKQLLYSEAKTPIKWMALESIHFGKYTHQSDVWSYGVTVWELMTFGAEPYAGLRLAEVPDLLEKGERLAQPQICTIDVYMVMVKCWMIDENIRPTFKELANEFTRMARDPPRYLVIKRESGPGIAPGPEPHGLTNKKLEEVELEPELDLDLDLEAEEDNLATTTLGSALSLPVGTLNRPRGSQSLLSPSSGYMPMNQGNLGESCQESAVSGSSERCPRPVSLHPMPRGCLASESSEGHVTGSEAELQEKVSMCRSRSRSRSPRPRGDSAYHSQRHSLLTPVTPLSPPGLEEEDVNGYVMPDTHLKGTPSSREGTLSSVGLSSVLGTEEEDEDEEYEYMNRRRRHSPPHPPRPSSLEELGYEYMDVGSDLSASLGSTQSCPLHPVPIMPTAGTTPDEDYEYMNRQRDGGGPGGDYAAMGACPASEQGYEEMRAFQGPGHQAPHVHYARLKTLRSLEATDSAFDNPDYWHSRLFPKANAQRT
# Chain of human HER4 (Q15303 26-1308): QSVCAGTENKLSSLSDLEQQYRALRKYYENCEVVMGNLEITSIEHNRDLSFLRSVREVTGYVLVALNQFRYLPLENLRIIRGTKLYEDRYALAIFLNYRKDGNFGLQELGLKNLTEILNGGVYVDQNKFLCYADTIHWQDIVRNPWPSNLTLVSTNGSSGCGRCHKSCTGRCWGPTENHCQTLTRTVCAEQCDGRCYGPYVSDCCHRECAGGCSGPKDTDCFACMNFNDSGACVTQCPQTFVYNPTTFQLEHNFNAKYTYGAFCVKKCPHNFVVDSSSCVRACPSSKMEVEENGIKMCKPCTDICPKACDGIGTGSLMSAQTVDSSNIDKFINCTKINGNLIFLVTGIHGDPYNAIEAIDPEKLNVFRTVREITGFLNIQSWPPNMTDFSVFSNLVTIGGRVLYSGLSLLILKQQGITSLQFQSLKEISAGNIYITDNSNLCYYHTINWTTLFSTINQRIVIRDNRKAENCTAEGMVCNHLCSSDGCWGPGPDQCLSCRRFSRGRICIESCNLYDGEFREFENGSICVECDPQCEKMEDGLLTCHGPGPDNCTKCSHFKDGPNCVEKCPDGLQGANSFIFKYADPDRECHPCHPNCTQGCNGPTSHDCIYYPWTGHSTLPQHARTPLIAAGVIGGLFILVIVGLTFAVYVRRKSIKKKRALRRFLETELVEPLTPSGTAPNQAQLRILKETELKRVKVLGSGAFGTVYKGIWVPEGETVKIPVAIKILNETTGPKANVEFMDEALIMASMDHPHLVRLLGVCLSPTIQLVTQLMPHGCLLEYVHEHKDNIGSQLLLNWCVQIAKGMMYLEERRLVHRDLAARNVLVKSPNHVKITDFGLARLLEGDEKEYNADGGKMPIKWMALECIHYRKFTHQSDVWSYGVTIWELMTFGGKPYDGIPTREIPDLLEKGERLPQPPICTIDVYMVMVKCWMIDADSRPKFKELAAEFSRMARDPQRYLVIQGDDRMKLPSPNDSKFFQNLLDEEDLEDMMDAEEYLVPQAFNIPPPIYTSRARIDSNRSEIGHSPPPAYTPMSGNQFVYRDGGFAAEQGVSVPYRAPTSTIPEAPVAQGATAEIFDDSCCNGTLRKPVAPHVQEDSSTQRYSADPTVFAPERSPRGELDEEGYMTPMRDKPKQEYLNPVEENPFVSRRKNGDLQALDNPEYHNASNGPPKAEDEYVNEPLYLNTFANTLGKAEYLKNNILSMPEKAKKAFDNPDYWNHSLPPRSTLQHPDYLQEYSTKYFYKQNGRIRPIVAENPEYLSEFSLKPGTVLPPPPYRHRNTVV
# Chain of human EGFR (P00533 25-1210): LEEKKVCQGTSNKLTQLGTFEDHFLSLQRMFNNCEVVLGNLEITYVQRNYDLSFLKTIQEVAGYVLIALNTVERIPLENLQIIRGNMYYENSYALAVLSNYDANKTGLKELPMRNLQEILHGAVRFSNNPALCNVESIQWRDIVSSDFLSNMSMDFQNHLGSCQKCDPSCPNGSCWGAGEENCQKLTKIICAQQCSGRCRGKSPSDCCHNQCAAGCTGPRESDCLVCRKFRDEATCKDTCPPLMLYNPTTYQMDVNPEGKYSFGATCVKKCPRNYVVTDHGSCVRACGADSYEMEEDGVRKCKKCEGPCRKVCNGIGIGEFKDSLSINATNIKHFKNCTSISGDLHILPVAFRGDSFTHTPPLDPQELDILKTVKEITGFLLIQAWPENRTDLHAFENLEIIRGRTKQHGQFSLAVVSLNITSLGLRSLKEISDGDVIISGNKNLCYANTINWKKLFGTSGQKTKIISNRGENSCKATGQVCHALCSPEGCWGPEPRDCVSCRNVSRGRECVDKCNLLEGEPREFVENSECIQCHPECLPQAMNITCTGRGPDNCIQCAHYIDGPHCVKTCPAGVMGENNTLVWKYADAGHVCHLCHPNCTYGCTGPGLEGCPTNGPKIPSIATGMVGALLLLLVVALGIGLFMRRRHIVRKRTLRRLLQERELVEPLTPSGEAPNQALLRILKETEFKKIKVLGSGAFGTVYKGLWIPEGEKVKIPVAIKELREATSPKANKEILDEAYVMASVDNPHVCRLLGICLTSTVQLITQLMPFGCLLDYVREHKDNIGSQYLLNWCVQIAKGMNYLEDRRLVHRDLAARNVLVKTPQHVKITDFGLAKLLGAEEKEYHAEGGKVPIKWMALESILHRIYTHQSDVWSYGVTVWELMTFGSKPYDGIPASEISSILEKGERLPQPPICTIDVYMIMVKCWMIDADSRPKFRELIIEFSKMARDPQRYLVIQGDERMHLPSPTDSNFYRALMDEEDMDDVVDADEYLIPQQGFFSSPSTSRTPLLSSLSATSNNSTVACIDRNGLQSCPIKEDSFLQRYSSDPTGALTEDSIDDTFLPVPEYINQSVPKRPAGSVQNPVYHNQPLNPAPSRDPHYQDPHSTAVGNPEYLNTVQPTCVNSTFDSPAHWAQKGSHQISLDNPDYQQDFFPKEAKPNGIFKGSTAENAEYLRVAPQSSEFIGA
# Chain of mouse HER2 (23-653), biotinylated, His tag, Avi tag (mouse) (P70424 23-653 limits assumed): as the sequence (P70424 23-653) above
molecule,measurement,setting,value
"COCCOCCOCCOCCOCCOCCOCCOCCOCCOCCOCCOCCC(=O)N[C@H]1CCCC(=O)NC[C@@H](C(=O)N(C)[C@@H](Cc2ccc(F)cc2)C(=O)N[C@@H](CCCCNC(=O)CN2CCN(CC(=O)O)CCN(CC(=O)O)CCN(CC(=O)O)CC2)C(N)=O)N(C)C(=O)[C@H](C2CC2)NC(=O)[C@H](Cc2c[nH]c3ccccc23)NC(=O)[C@H](Cc2c[nH]c3ccc(O)cc23)NC(=O)[C@H](CCCCNC(C)=O)N(C)C(=O)[C@H](CCc2ccccc2)N(C)C(=O)[C@H](CO)NC(=O)[C@H](Cc2ccc(O)cc2)NC1=O [Example I1, Example B2 labelled with ^68Ga, metal not drawn]","Radiochemical purity by radio-HPLC, stability in solution, 4 h",[1],97.2%
"COCCOCCOCCOCCOCCOCCOCCOCCOCCOCCOCCOCCC(=O)N[C@H]1CCCC(=O)NC[C@@H](C(=O)N(C)[C@@H](Cc2ccc(F)cc2)C(=O)N[C@@H](CCCCNC(=O)CN2CCN(CC(=O)O)CCN(CC(=O)O)CCN(CC(=O)O)CC2)C(N)=O)N(C)C(=O)[C@H](C2CC2)NC(=O)[C@H](Cc2c[nH]c3ccccc23)NC(=O)[C@H](Cc2c[nH]c3ccc(O)cc23)NC(=O)[C@H](CCCCNC(C)=O)N(C)C(=O)[C@H](CCc2ccccc2)N(C)C(=O)[C@H](CO)NC(=O)[C@H](Cc2ccc(O)cc2)NC1=O [Example H1, Example B2 labelled with ^177Lu, metal not drawn]",tumor/normal tissue ratios,[2],favorable tumor/normal tissue ratios
CC(=O)NCCCC[C@H]1C(=O)N[C@@H](Cc2c[nH]c3ccc(O)cc23)C(=O)N[C@@H](Cc2c[nH]c3ccccc23)C(=O)N[C@@H](C2CC2)C(=O)N(C)[C@H](C(=O)N(C)[C@@H](Cc2ccc(F)cc2)C(=O)N[C@@H](CCCCNC(=O)c2ccc([N+](C)(C)C)nc2)C(N)=O)CNC(=O)CCC[C@H](NC(C)=O)C(=O)N[C@@H](Cc2ccc(O)cc2)C(=O)N[C@@H](CO)C(=O)N(C)[C@@H](CCc2ccccc2)C(=O)N1C [Example F2],Kd,[3],< 0.1 nM
same,Kd,[4],< 0.1 nM
same,IC50,[5],< 0.1 nM
same,IC50,[6],0.2 nM
"CC(=O)NCCCC[C@H]1C(=O)N[C@@H](Cc2c[nH]c3ccc(O)cc23)C(=O)N[C@@H](Cc2c[nH]c3ccccc23)C(=O)N[C@@H](C2CC2)C(=O)N(C)[C@H](C(=O)N(C)[C@@H](Cc2ccc(F)cc2)C(=O)N[C@@H](CCCCNC(=O)CN2CCN(CC(=O)O)CCN(CC(=O)O)CCN(CC(=O)O)CC2)C(N)=O)CNC(=O)CCC[C@H](NC(C)=O)C(=O)N[C@@H](Cc2ccc(O)cc2)C(=O)N[C@@H](CO)C(=O)N(C)[C@@H](CCc2ccccc2)C(=O)N1C [Example I2, Example B1 labelled with ^68Ga, metal not drawn]","Radiochemical purity by radio-HPLC, stability in solution, 4 h",[1],97.2%
COCCOCCOCCOCCOCCOCCOCCOCCOCCOCCOCCOCCC(=O)N[C@H]1CCCC(=O)NC[C@@H](C(=O)N(C)[C@@H](Cc2ccc(F)cc2)C(=O)N[C@@H](CCCCNC(=O)CN2CCN(CC(=O)O)CCN(CC(=O)O)CCN(CC(=O)O)CC2)C(N)=O)N(C)C(=O)[C@H](C2CC2)NC(=O)[C@H](Cc2c[nH]c3ccccc23)NC(=O)[C@H](Cc2c[nH]c3ccc(O)cc23)NC(=O)[C@H](CCCCNC(C)=O)N(C)C(=O)[C@H](CCc2ccccc2)N(C)C(=O)[C@H](CO)NC(=O)[C@H](Cc2ccc(O)cc2)NC1=O [Example B2],Kd,[7],> 6000 nM
same,Kd,[8],> 6000 nM
same,Kd,[9],> 6000 nM
same,Kd,[10],> 6000 nM
same,Kd,[11],< 0.1 nM
same,Kd,[12],0.1 nM
same,IC50,[5],< 0.1 nM
same,IC50,[6],0.2 nM
CC(=O)NCCCC[C@H]1C(=O)N[C@@H](Cc2c[nH]c3ccc(O)cc23)C(=O)N[C@@H](Cc2c[nH]c3ccccc23)C(=O)N[C@@H](C2CC2)C(=O)N(C)[C@H](C(=O)N(C)[C@@H](Cc2ccc(F)cc2)C(=O)N[C@@H](CCCCNC(=O)CN2CCN(CC(=O)O)CCN(CC(=O)O)CCN(CC(=O)O)CC2)C(N)=O)CNC(=O)CCC[C@H](NC(C)=O)C(=O)N[C@@H](Cc2ccc(O)cc2)C(=O)N[C@@H](CO)C(=O)N(C)[C@@H](CCc2ccccc2)C(=O)N1C [Example B1],Kd,[7],> 6000 nM
same,Kd,[8],> 6000 nM
same,Kd,[9],> 6000 nM
same,Kd,[10],> 6000 nM
same,Kd,[11],< 0.1 nM
same,Kd,[12],< 0.1 nM
same,IC50,[5],< 0.1 nM
same,IC50,[6],< 0.1 nM
H-CYS[NMehPhe][NMeS][Trp(5-OH)]W[cProG][NMeC][NMePhe(4-F)]-NH2 (disulfide 1-9) [Example A54],Kd,[13],5300 nM
Ac-[Aad]YS[NMehPhe][MeKAc][Trp(5-OH)]A[CproG][NMeDap][NMePhe(4-F)]K(DOTA)-NH2 (lactam 1-9; reading uncertain; also: DOTA complexed with 175Lu) [Example C32],IC50,[14],9820 nM
Ac-EY[Dap](DOTA)[NMehPhe][NMeK](Ac)[Trp(5-OH)]W[aThr][NMeDap][NMePhe(4-F)]K(X4)-NH2 (lactam 1-9; also: DOTA complexed with 175Lu) [Example C26],Kd,[15],5.1 nM
same,Kd,[16],11 nM
same,IC50,[17],4.2 nM
same,IC50,[18],17 nM
